Laboratory results as given in ChEMBL document CHEMBL1201862, “PubChem BioAssay data set” (2004).
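1) Cells in 96-well plates. 2) Compound, 48 h, 5 concentrations. 3) Linear interpolation between surrounding doses. 4) Unreached endpoint = highest concentration. The concentration for 50% growth inhibition is given as GI50.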 Calls of active or inactive are those of the source. Cut-off read from the data, not from the text of the source: active = GI50 up to about 1.1 µM and inactive = higher.

Key:
Assay in all cases: growth of human tumour cells (NCI), 48 h
MDA-N = test system: MDA-N
A549 = test system: A549
PC-3 = test system: PC-3
KM12 = test system: KM12
BT-549 = test system: BT-549
LOX IMVI = test system: LOX IMVI
SK-MEL-2 = test system: SK-MEL-2
ACHN = test system: ACHN
SK-MEL-28 = test system: SK-MEL-28
U-251 = test system: U-251
SNB-75 = test system: SNB-75
T47D = test system: T47D
HOP-92 = test system: HOP-92
NCI-H226 = test system: NCI-H226
SW-620 = test system: SW-620
HL-60 = test system: HL-60
UACC-62 = test system: UACC-62
RXF 393 = test system: RXF 393
RPMI-8226 = test system: RPMI-8226

| SMILES | GI50 (MDA-N) | GI50 (A549) | GI50 (PC-3) | GI50 (KM12) | GI50 (BT-549) | GI50 (LOX IMVI) | GI50 (SK-MEL-2) | GI50 (ACHN) | GI50 (SK-MEL-28) | GI50 (U-251) | GI50 (SNB-75) | GI50 (T47D) | GI50 (HOP-92) | GI50 (NCI-H226) | GI50 (SW-620) | GI50 (HL-60) | GI50 (UACC-62) | GI50 (RXF 393) | GI50 (RPMI-8226) |
| --- | --- | --- | --- | --- | --- | --- | --- | --- | --- | --- | --- | --- | --- | --- | --- | --- | --- | --- | --- |
| Cc1[nH]n(-c2ccccc2)c(=O)c1C(N(CCc1ccccc1)C1=NCC(C)S1)(C(F)(F)F)C(F)(F)F (stereo not given) | 8.63 µM (inactive) | 15.1 µM (inactive) | 16.1 µM (inactive) | 13.1 µM (inactive) | 10.4 µM (inactive) | 0.164 µM (active) | 8.51 µM (inactive) | 16.2 µM (inactive) | 16.4 µM (inactive) | 7.41 µM (inactive) | 16.5 µM (inactive) | 5.19 µM (inactive) | 0.352 µM (active) | 6.28 µM (inactive) | 18.1 µM (inactive) | 7.69 µM (inactive) | 8.71 µM (inactive) | – | – |
| O=C1C2=Cc3ccccc3OC2(O)Oc2cc3ccccc3cc21 (stereo not given) | > 100 µM (inactive) | > 100 µM (inactive) | > 100 µM (inactive) | 41.4 µM (inactive) | 15.1 µM (inactive) | > 100 µM (inactive) | > 100 µM (inactive) | 87.9 µM (inactive) | > 100 µM (inactive) | 50.9 µM (inactive) | 25.9 µM (inactive) | > 100 µM (inactive) | 74.3 µM (inactive) | 56.1 µM (inactive) | > 100 µM (inactive) | – | > 100 µM (inactive) | 58.1 µM (inactive) | > 100 µM (inactive) |
| CS(=O)(=O)Nc1ccc2ccccc2c1 | > 100 µM (inactive) | > 100 µM (inactive) | > 100 µM (inactive) | > 100 µM (inactive) | 30.4 µM (inactive) | > 100 µM (inactive) | > 100 µM (inactive) | > 100 µM (inactive) | > 100 µM (inactive) | > 100 µM (inactive) | > 100 µM (inactive) | > 100 µM (inactive) | 87.7 µM (inactive) | 79.4 µM (inactive) | > 100 µM (inactive) | > 100 µM (inactive) | > 100 µM (inactive) | – | > 100 µM (inactive) |
| CCC(C#N)NCc1ccc(CNC(C#N)CC)cc1 (stereo not given) | > 100 µM (inactive) | > 100 µM (inactive) | > 100 µM (inactive) | > 100 µM (inactive) | > 100 µM (inactive) | > 100 µM (inactive) | > 100 µM (inactive) | > 100 µM (inactive) | > 100 µM (inactive) | > 100 µM (inactive) | – | > 100 µM (inactive) | > 100 µM (inactive) | > 100 µM (inactive) | > 100 µM (inactive) | > 100 µM (inactive) | 86.5 µM (inactive) | > 100 µM (inactive) | – |
| Cc1ccc(C(=O)N/N=C(\N=N\c2ccccc2Cl)c2ccc(N(C)C)cc2)cc1 | 11.5 µM (inactive) | 50.6 µM (inactive) | 49 µM (inactive) | 21.9 µM (inactive) | 29.3 µM (inactive) | 43.6 µM (inactive) | 54.6 µM (inactive) | 13.3 µM (inactive) | > 100 µM (inactive) | 62.1 µM (inactive) | – | 2.64 µM (inactive) | > 100 µM (inactive) | 60.8 µM (inactive) | > 100 µM (inactive) | 14.1 µM (inactive) | 4.55 µM (inactive) | – | 23.7 µM (inactive) |
| CCOC(=O)N1CCNCCN(C(=O)OCC)CCNCC1 | > 100 µM (inactive) | > 100 µM (inactive) | > 100 µM (inactive) | – | > 100 µM (inactive) | > 100 µM (inactive) | > 100 µM (inactive) | > 100 µM (inactive) | > 100 µM (inactive) | > 100 µM (inactive) | – | > 100 µM (inactive) | > 100 µM (inactive) | > 100 µM (inactive) | > 100 µM (inactive) | > 100 µM (inactive) | > 100 µM (inactive) | > 100 µM (inactive) | > 100 µM (inactive) |
| Cc1nn(-c2ccccc2)c2c1N=C(C(=O)O)CC(c1ccccc1)=N2 | > 10 µM (inactive) | > 10 µM (inactive) | > 10 µM (inactive) | > 10 µM (inactive) | > 10 µM (inactive) | > 10 µM (inactive) | – | > 10 µM (inactive) | > 10 µM (inactive) | > 10 µM (inactive) | > 10 µM (inactive) | > 10 µM (inactive) | > 10 µM (inactive) | – | > 10 µM (inactive) | > 10 µM (inactive) | > 10 µM (inactive) | – | > 10 µM (inactive) |
| C/C(=N\O)c1cccc(Nc2c3ccccc3nc3occc23)c1 | 3.05 µM (inactive) | 4.93 µM (inactive) | 17.7 µM (inactive) | 6.11 µM (inactive) | 3.29 µM (inactive) | 5.78 µM (inactive) | 4.18 µM (inactive) | 8.07 µM (inactive) | 4.02 µM (inactive) | 13.6 µM (inactive) | – | 2.56 µM (inactive) | 7.24 µM (inactive) | 14.1 µM (inactive) | – | 4.74 µM (inactive) | 3.42 µM (inactive) | – | 3.07 µM (inactive) |
| O=C(OCc1ccccc1)N1CCNCCNCCN(C(=O)OCc2ccccc2)CCNCC1 | 16.2 µM (inactive) | 63.4 µM (inactive) | 41.6 µM (inactive) | 29.6 µM (inactive) | 60.7 µM (inactive) | 16.3 µM (inactive) | 17.5 µM (inactive) | 39.9 µM (inactive) | 15.3 µM (inactive) | 17.9 µM (inactive) | 21.5 µM (inactive) | 17.1 µM (inactive) | 20.6 µM (inactive) | > 100 µM (inactive) | 17.1 µM (inactive) | 8.2 µM (inactive) | 17.7 µM (inactive) | – | 19.5 µM (inactive) |
| Cn1c(=O)n(-c2c3ccccc3c(Cl)c3ccccc23)n(C(C)(C)C)c1=O | > 100 µM (inactive) | > 100 µM (inactive) | > 100 µM (inactive) | > 100 µM (inactive) | > 100 µM (inactive) | > 100 µM (inactive) | > 100 µM (inactive) | > 100 µM (inactive) | > 100 µM (inactive) | > 100 µM (inactive) | 12.1 µM (inactive) | > 100 µM (inactive) | 57.7 µM (inactive) | 44.6 µM (inactive) | > 100 µM (inactive) | > 100 µM (inactive) | > 100 µM (inactive) | – | – |
| COc1cc([N+](=O)[O-])c(S(=O)(=O)O)cc1NS(=O)(=O)c1ccc(C)cc1 | > 100 µM (inactive) | > 100 µM (inactive) | > 100 µM (inactive) | > 100 µM (inactive) | > 100 µM (inactive) | > 100 µM (inactive) | > 100 µM (inactive) | > 100 µM (inactive) | > 100 µM (inactive) | > 100 µM (inactive) | > 100 µM (inactive) | > 100 µM (inactive) | – | > 100 µM (inactive) | > 100 µM (inactive) | > 100 µM (inactive) | > 100 µM (inactive) | – | > 100 µM (inactive) |
| Oc1[nH]c(NCc2ccc(Cl)cc2)nc2ncnc1-2 | > 100 µM (inactive) | > 100 µM (inactive) | > 100 µM (inactive) | > 100 µM (inactive) | > 100 µM (inactive) | > 100 µM (inactive) | > 100 µM (inactive) | > 100 µM (inactive) | – | > 100 µM (inactive) | > 100 µM (inactive) | > 100 µM (inactive) | > 100 µM (inactive) | > 100 µM (inactive) | > 100 µM (inactive) | – | > 100 µM (inactive) | > 100 µM (inactive) | > 100 µM (inactive) |
